Assay results: PMC11070508, “Design, synthesis, molecular docking, and molecular dynamic studies of novel quinazoline derivatives as phosphodiesterase 7 inhibitors” (Frontiers in Pharmacology, 2024)
Entries after “also recorded” stand apart in the source; their conditions may differ. Like-named read-outs stand apart in the source and are kept apart here.

How the values were obtained:
PDE7A = target: T1, PDE7A (Homo sapiens, UniProt Q13946); assay: In vitro PDE7A inhibitory activity assay (fluorescence polarization PDE7A Assay Kit, BPS Bioscience); format: biochemical; conditions: for IC50: fluorescence polarization kit
T1 construct: purchased BPS Bioscience 60373
T1 sequence (Q13946 whole entry): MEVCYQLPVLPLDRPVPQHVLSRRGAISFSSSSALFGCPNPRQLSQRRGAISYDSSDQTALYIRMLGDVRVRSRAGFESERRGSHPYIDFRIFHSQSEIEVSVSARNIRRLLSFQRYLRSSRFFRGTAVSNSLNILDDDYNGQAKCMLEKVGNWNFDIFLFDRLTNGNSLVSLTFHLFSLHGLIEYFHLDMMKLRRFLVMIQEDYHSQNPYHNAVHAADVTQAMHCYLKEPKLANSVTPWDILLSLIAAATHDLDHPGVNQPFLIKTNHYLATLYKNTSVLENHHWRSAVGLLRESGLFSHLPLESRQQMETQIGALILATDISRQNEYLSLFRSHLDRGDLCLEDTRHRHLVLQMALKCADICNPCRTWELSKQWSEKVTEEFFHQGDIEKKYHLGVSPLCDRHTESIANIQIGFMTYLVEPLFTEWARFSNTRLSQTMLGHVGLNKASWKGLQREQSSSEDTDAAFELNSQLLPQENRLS
Method: The inhibitory activity of the compounds was determined as half maximal inhibitory concentration IC50 in μM ([Malik et al., 2008]; [Pekkinen et al., 2008]).
All the newly synthesized compounds 4a-h and 5a-h were evaluated for in vitro PDE7A inhibitory activity using a fluorescence polarization PDE7A Assay Kit (Catalog no. 60373; BPS Bioscience) ([Malik et al., 2008]; [Pekkinen et al., 2008]). The assay is based on the binding of fluorescent nucleotide, a monophosphate generated by PDE7A to the binding agent. PDE7A catalyzes the hydrolysis of the phosphodiester bond in dye-labeled cyclic adenosine monophosphate (cAMP). Nanoparticle beads selectively bind the phosphate group in the nucleotide product. This increases the size of the nucleotide relative to unreacted cAMP. Since the degree of polarization of a fluorophore is inversely related to its molecular rotation, dyes attached to the slowly rotating nucleotide-bead complexes will not have time to reorient and therefore will emit highly polarized light. Conversely, dyes attached to the rapidly rotating cyclic monophosphates will obtain random orientations and emit light with low polarization.
The PDE7A inhibitor screening assay kit comes in a convenient 384-well format, including purified PDE7A enzyme, fluorescently labeled PDE7A substrate (cAMP), binding agent, and PDE assay buffer for 384 enzyme reactions. The key to the PDE7A Assay Kit is the specific binding agent. Using this kit, only two simple steps on a microtiter plate are required for PDE7A reactions. First, the fluorescently labeled cAMP is incubated with a sample containing PDE7A for 1 h. Second, a binding agent is added to the reaction mix to produce a change in fluorescent polarization that can then be measured using a fluorescence reader. The microtiter plate reader is capable of excitation at wavelengths ranging from 485 ± 15 nm and detection of emitted light ranging from 528 ± 10 nm. […] The inhibitory activity of the tested compounds was determined as half maximal inhibitory concentration IC50 in μM compared to the two reference standards.
This in vitro testing assay was carried out at the confirmatory diagnostic unit, Vacsera, Egypt, and the results are presented in Table 1 and represented in Figure 2. […] Halogen atoms are lipophilic substituents commonly used in the design of novel biologically active molecules.

PDE7 = conditions: cited from earlier work

Row | Structure (SMILES) | PDE7A inhibitory activity (result in words) (PDE7A) | IC50 (PDE7A) | melting point | IC50 (PDE7; ref Sánchez et al., 2013) | IC50 (PDE7; ref Elfeky et al., 2020)
1 | Clc1ccc2nc(Cl)nc(NN=Cc3c[nH]c4ccc(Br)cc34)c2c1 [Compound 4g, 4-[2-(5-bromo-1H-3-indolylmethylene)hydrazino]-2,6-dichloroquinazoline] | good potency; also recorded: good activity | 0.15 µM | < 280 °C |  | 
2 | Clc1ccc2nc(Cl)n3c(-c4cccnc4)nnc3c2c1 [Compound 5f, 5,9-Dichloro-3-(3-pyridyl)-1,2,4-triazolo[4,3-c]quinazoline] | good potency; also recorded: high PDE7 inhibitory potencies; also recorded: highest selective PDE7A inhibitors | 0.142 µM | 219 to 221 °C |  | 
3 | Clc1nc(NN=Cc2cccnc2)c2ccccc2n1 [Compound 4b, 2-Chloro-4-[2-(3-pyridylmethylene)hydrazino]quinazoline] | good potency; also recorded: high PDE7 inhibitory potencies; also recorded: highest selective PDE7A inhibitors | 0.114 µM | < 280 °C |  | 
4 | Clc1ccc2nc(Cl)nc(NN=Cc3ccnc4ccccc34)c2c1 [Compound 4h, 2,6-Dichloro-4-[2-(4-quinolinylmethylene)hydrazino]quinazoline] | very low PDE7 inhibitory effect | 0.627 µM | < 280 °C |  | 
5 | CC(C)c1nc(SCc2ccc(-c3ccccc3-c3nnn[nH]3)cc2)c2ccccc2n1 [C] |  |  |  | 770 nM | 
6 | Clc1nc2ccccc2c2nnc(-c3c[nH]c4ccc(Br)cc34)n12 [Compound 5c, 3-(5-Bromo-3-indolyl)-5-chloro-1,2,4-triazolo[4,3-c]quinazoline] | good potency; also recorded: good activity | 0.18 µM | 200 to 202 °C |  | 
7 | Cn1c(-c2ccoc2)nc(=O)c2ccccc21 [B] |  |  |  |  | 90 nM
8 | Clc1nc2ccccc2c2nnc(-c3cccnc3)n12 [Compound 5b, 5-Chloro-3-(3-pyridyl)-1,2,4-triazolo[4,3-c]quinazoline] | high PDE7 inhibitory potencies | 0.32 µM | > 280 °C |  | 
9 | Clc1ccc2nc(Cl)nc(NN=Cc3cccnc3)c2c1 [Compound 4f, 2,6-Dichloro-4-[2-(3-pyridylmethylene)hydrazino]quinazoline] | high PDE7 inhibitory potencies | 0.343 µM | 198 to 200 °C |  | 
10 | Clc1nc(NN=Cc2ccnc3ccccc23)c2ccccc2n1 [Compound 4d, 2-Chloro-4-[2-(4-quinolinylmethylene)hydrazino]quinazoline] |  | 0.249 µM | 205 to 207 °C |  | 
11 | CC(C)c1nc(SCc2ccc(-c3ccc(C(=O)O)cc3)cc2)c2ccccc2n1 [D] |  |  |  | 930 nM | 
12 | OCc1ccc(C=NNc2nc(Cl)nc3ccccc23)o1 [Compound 4a, 2-Chloro-4-[2-(5-hydroxymethyl-2-furylmethylene)hydrazino]quinazoline] | among the least effective compounds | 0.653 µM | > 280 °C |  | 
13 | Clc1ccc2nc(Cl)n3c(-c4ccnc5ccccc45)nnc3c2c1 [Compound 5h, 5,9-Dichloro-3-(4-quinolinyl)-1,2,4-triazolo[4,3-c]quinazoline] | very low PDE7 inhibitory effect | 1.8 µM | < 280 °C |  | 
14 | Clc1nc(NN=Cc2c[nH]c3ccc(Br)cc23)c2ccccc2n1 [Compound 4c, 4-[2-(5-bromo-1H-3-indolylmethylene)hydrazino]-2-chloroquinazoline] |  | 0.478 µM | 238 to 240 °C |  | 
15 | Clc1ccc2nc(Cl)n3c(-c4c[nH]c5ccc(Br)cc45)nnc3c2c1 [Compound 5g, 3-(5-Bromo-3-indolyl)-5,9-dichloro-1,2,4-triazolo[4,3-c]quinazoline] | good activity | 0.407 µM | > 280 °C |  | 
16 | O=c1[nH]c(=S)[nH]c2cc(F)c(F)cc12 [A] |  |  |  |  | 70 nM
17 | Clc1nc2ccccc2c2nnc(-c3ccnc4ccccc34)n12 [Compound 5d, 5-Chloro-3-(4-quinolinyl)-1,2,4-triazolo[4,3-c]quinazoline] | very low PDE7 inhibitory effect | 0.894 µM | 220 to 222 °C |  | 
18 | OCc1ccc(-c2nnc3c4ccccc4nc(Cl)n23)o1 [Compound 5a, 5-Chloro-3-(5-hydroxymethyl-2-furyl)-1,2,4-triazolo[4,3-c]quinazoline] |  | 0.251 µM | > 280 °C |  | 
19 | OCc1ccc(-c2nnc3c4cc(Cl)ccc4nc(Cl)n23)o1 [Compound 5e, 5,9-Dichloro-3-(5-hydroxymethyl-2-furyl)-1,2,4-triazolo[4,3-c]quinazoline] | among the least effective compounds | 1.34 µM | < 280 °C |  | 
20 | Cc1ccc([N+](=O)[O-])cc1S(=O)(=O)N(C)C [BRL50481, reference compound] |  | 0.034 µM |  |  | 
21 | OCc1ccc(C=NNc2nc(Cl)nc3ccc(Cl)cc23)o1 [Compound 4e, 2,6-Dichloro-4-[2-(5-hydroxymethyl-2-furylmethylene)hydrazino]quinazoline] | among the least effective compounds | 1.97 µM | < 280 °C |  | 
